# From patent publication US20240016784A1, “Y BOX BINDING PROTEIN 1 INHIBITORS” (Oregon Health & Science University, priority 2020, published 2024)
# How the values were obtained:
# 4T1 tumor xenograft = test: 4T1 tumor xenograft; assay type: in vivo, BALB/c mice; settings: SU056 50 mg/kg, oral gavage
# Experimental: Mice were subcutaneously injected with 4T1 cells and drug treatment started after three day of implantation. Mice were given either vehicle (40% PEG in saline) or SU056 (50 mg/kg) through oral route using oral gavage. FIG. 14A) Tumor volume (4T1) as a function of time. FIG. 14B) Tumor weight (4T1) at the end of the study. FIG. 14C) Body weight (4T1) as a function of time. FIG. 14D) Representative images of tumor (4T1) at the end of study. Combination of Paclitaxel and SU056 in 4T1 xenograft model. FIG. 14E) Tumor volume (4T1) as a function of time. FIG. 14F) Tumor weight (4T1) at the end of the study. FIG. 14G) Body weight (4T1) as a function of time.
# [1] = system: MDA-MB-231, MDA-MB-468 and SUT1151-PDX xenografts; test: Tumor xenografts of TNBC models; assay type: in vivo, Mice; settings: SU056 50 mg/kg, oral gavage
# Experimental: FIGS. 13A-13I. […] Mice were subcutaneously injected with MDA-MB-231 (2×10^6 cells), MDA-MB-468 (5×10^6 cells) and patient derived xenograft SUT1151-PDX (2×10^6 cells) and drug treatment started when tumor reached 100 mm^3. Mice were given either vehicle (40% PEG in saline) or SU056 (50 mg/kg) through oral route using oral gavage. FIG. 13A) Tumor volume (MDA-MB-231) as a function of time. FIG. 13B) Tumor weight (MDA-MB-231) at the end of the study. FIG. 13C) Body weight (MDA-MB-231) as a function of time. FIG. 13D) Tumor volume (MDA-MB-468) as a function of time. FIG. 13E) Tumor weight (MDA-MB-468) at the end of the study. FIG. 13F) Body weight (MDA-MB-468) as a function of time. FIG. 13G) Representative images of tumor (MDA-MB-231) at the end of study. FIG. 13H) Representative images of tumor (MDA-MB-468) at the end of study. FIG. 13I) Tumor volume (SUT1151-PDX) as a function of time. FIG. 13B) Tumor weight (SUT1151-PDX) at the end of the study. FIG. 13C) Body weight (SUT1151-PDX) as a function of time.
# [2] = biological target: T1, YB-1 in OVCAR4, OVCAR8, and SKOV3 cells (Homo sapiens, UniProt P67809); test: YB-1 inhibition time kinetics (YB-1 ELISA); assay type: cell-based; settings: 5 μM treatment for 24 h; all three OC cells
# T1 construct: endogenous in cells; host or cells: OVCAR4, OVCAR8, SKOV3
# Experimental: Out of six targets identified, we selected proteins whose thermal shift is above 5° in the presence of SU056 for further study of protein expression after treatment. […] To study the in vivo effects of SU056 treatment, we analyzed ID8 tumor xenograft samples via immunohistochemistry (IHC). […] To identify the broader effects of SU056 on YB-1 and its downstream protein/activity in different ovarian cancer cell lines, we selected six different cell lines and treated them with SU056 (2.5 μM) for 12 h. Cells were analyzed for YB-1 and CD44 expression and Multidrug resistance 1 (MDR1, ABC pump mediated efflux). […] Finally, we tested the time kinetics and dose-dependent effects of SU056 on YB-1 expression. OVCAR4, OVCAR8, and SKOV3 cells were treated with SU056 (1, 2.5, and 5 μM) for 3, 6, 12, and 24 h and YB-1 expression was measured using YB-1 ELISA. […]
# Total YB-1 sandwich ELISA: Total YB-1 protein level was analyzed using PathScan® Total YB1 Sandwich ELISA Kit (Cell Signaling, #12543) by following the manufacturer's protocol.
# FIGS. 4A-4E: SU056 inhibits YB-1. […] FIG. 4C) Respective OC cells were treated with 2.5 μM SU056 for 12 h and YB-1 & CD44 expression and multidrug resistance activity was measured as described in the ‘method’ section. The % inhibition was calculated and compared to the control for the respective cell line. […]
# T1 sequence (P67809 whole entry): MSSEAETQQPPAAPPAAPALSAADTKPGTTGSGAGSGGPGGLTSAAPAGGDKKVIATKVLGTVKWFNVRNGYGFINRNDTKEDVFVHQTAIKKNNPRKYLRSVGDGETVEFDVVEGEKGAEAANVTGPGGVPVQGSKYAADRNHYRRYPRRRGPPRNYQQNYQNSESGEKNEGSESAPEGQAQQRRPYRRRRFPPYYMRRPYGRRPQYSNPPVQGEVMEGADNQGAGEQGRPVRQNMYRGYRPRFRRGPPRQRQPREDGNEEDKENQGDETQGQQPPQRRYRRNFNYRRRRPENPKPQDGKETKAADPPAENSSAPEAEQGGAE
compound,measurement,setting,value
"O=C1OCC2=C1C(c1cccc(F)c1)c1cc3c(cc1N2CCO)OCO3 (stereo not drawn) [SU056, 9-(3-fluorophenyl)-5-(2-hydroxyethyl)-6,9-dihydro-[1,3]dioxolo[4,5-g]furo[3,4-b]quinolin-8(5H)-one]",4T1 tumor xenograft growth,4T1 tumor xenograft,inhibit 4T1 tumor xenograft
same,"tumor xenograft growth, TNBC models",[1],inhibit tumor xenograft of TNBC models
same,YB-1 inhibition,[2],100%
